{"source": "patent US11179348B2", "about": "“Combination comprising pterostilbene for the treatment of cancer” (FUNDACIÓN UNIVERSIDAD CATÓLICA DE VALENCIA SAN VICENTE …, priority 2015, dated 2021)", "key": {"[1]": {"system": "Caco-2 cells", "test": "GSH levels and glutathione- and oxidative stress-related enzyme activities in Caco-2 cells growing in vivo", "set-up": "species or system human", "details": "Caco-2, in vivo Pter, day 28", "description": "(§1) To measure enzyme activity, isolated tumor cells were homogenized in 0.1 M phosphate buffer (pH 7.2) at 4° C. GCL and GSS activities were measured as described previously (Obrador, E. et al. Hepatology 35, 74-81 (2002)). GPX (selenium dependent) activity was measured as described by Flohé and Gunzler (Flohe, L. & Gunzler, W. A. Methods Enzymol 105, 114-121 (1984)) using H2O2 as a substrate. GSR activity was determined as described by Akerboom and Sies (Akerboom, T. P. et al, Bull Eur Physiopathol Respir 17 Suppl, 221-227 (1981)). GGT activity was measured as described previously (Obrador, E. et al. Hepatology 35, 74-81 (2002)). GST activity was measured using an assay kit from Sigma. TXNRD activity, defined by the concentration of sodium-lipoate (disulfide) reduced to dehydrolipoate (dithiol) per milligram protein, was measured as previously described (Javvadi, P. et al. Cancer Res 70, 1941-1950 (2010)). SOD activity was measured as described by Flohé and Otting (Flohe, L. & Otting, F. Methods Enzymol 105, 93-104 (1984).) using 2 mM cyanide in the assay medium to distinguish mangano-type enzyme (SOD2) from the cuprozinc type (SOD1). CAT activity was analyzed as described by Aebi (Aebi, H. Methods Enzymol 105, 121-126 (1984)). NOX activity was measured by chemiluminescence following the methodology of Wind et al. (Wind, S. et al. Comparative pharmacology of chemically distinct NADPH oxidase inhibitors. Br J Pharmacol 161, 885-898 (2010)). Protein concentration was determined with the Pierce BCA protein assay (Fisher Scientific, Waltham, Mass.).\n(§2) GSH, GSSG, NADP^+ and NADPH Determination.\n(§3) GSH and GSSG were determined, following procedures previously described (Obrador, E. et al. PLoS One 9, e96466 (2014)), by LC/MS using the same equipment described above for pterostilbene determination. Cell processing was performed according to published methodology, where rapid N-ethylmaleimide derivatization was used to prevent GSH auto-oxidation (Asensi, M. et al. Anal Biochem 217, 323-328 (1994)). NADP^+ and NADPH were quantitated using an assay kit from Sigma (St. Louis, Mo.).\n(§4) Isolation of Tumor Cells from Mouse Xenografts Using Enzymatic Digestion and a double Ficoll gradient.\n(§5) To maximize the amount of isolated cells, avoiding the use of RFP-transfected cells and subsequent laser microdissection, an alternative methodology was set up. To maximize cell yield and viability the following combination of enzymes was used: collagenase III (200 U/ml; Sigma-Aldrich), DNase I (200 U/ml; Sigma-Aldrich) and trypsin (5 mg/ml; Invitrogen), and a non-enzymatic dissociation buffer (NEDB, Invitrogen). Briefly, mice were killed, and tumors were removed (avoiding skin, muscle and fat) into cold culture media and processed immediately. The tumors were minced into 1-3 mm fragments, which were then incubated with the dissociation solution (see above) for 30 min at 37° C. The tumor fragments were mixed up and down every 10 min using a […] micropipette with a tip cut to a diameter adapted to tissue fragment size. After each incubation period, the fragments were filtered through a […] nylon mesh cell strainer (BD Biosciences, San Diego, Calif., USA). The released cells were centrifuged at 1200 r.p.m. for 2 min and stored in cold CO2-independent medium with 30% FCS at […]. Fresh dissociation solution was added to the remaining tissue fragments for 30 min. Dissociation was stopped when no additional cells were released. The fragments were pushed through a sieve and all cells from all incubation periods were pooled and counted.\n(§6) The dissociated cells were layered onto a double Ficoll gradient (Histopaque; Sigma-Aldrich; densities 1.077 and 1.119) and spun at 700 g for 30 min at room temperature. Cells removed from both interfaces were pooled and washed two times in CO2-independent medium and stored at 4° C. Debris and red blood cell elimination was improved with the dual-density gradient. […]"}, "[2]": {"system": "Caco-2 colorectal carcinoma", "test": "In vivo growth of Caco-2 colorectal cancer xenografts", "set-up": "species or system human", "details": "Caco-2, day 28"}, "[3]": {"system": "AtT-20 pituitary corticotroph tumor cells", "test": "ACTH production and POMC expression in AtT-20 cells", "assay_type": "cell-based, mouse", "details": "pterostilbene 15 μM", "description": "FIG. 3. Pterostilbene bioavailability in brain and the pituitary gland, and its effect on ACTH synthesis and POMC expression in AtT-20 cells. […] (B) Effect of pterostilbene on ACTH production by AtT-20 cells in a 24 h-period (measured between 24-48 h or between 48-72 h). […] After the 30 min period, culture flasks were washed out (three times with PBS) and the medium was renewed (controls received identical treatment).\n(§7) Plasma levels of ACTH (Calbiotech, Inc., Spring Valley, Calif.), corticosterone (Kamiyama Biomedical Co., Seattle, Wash.), and NORA (IBL, Hamburg, Germany) were quantified by ELISA according to the instructions of the suppliers.\nRT-PCR and detection of mRNA was performed as described above. For Western blotting (see also above) POMC mouse monoclonal antibody (clone 2B2) from Origen (Rockville, Md.) were used."}, "[4]": {"system": "NORA", "test": "Plasma NORA levels (ELISA) in melanoma-bearing mice", "assay_type": "in vivo", "details": "melanoma-bearing mice treated vs not treated with Pter", "source_text": "Measurement of ACTH, Corticosterone, and NORA Levels.\nas §7"}, "[5]": {"system": "PC-3 prostate adenocarcinoma", "test": "In vivo growth of PC-3 prostate cancer xenografts", "set-up": "species or system human", "details": "PC-3, day 21"}, "[6]": {"system": "MDA-MB-231 cells", "test": "GSH levels and glutathione- and oxidative stress-related enzyme activities in MDA-MB-231 cells growing in vivo", "set-up": "species or system human", "details": "MDA-MB-231, in vivo Pter, day 35", "description": "as §1, §2, §3, §4, §5, §6"}}, "note": "Marks after values point to notes of the source that are not given here."}
{"molecule": "COc1cc(/C=C/c2ccc(O)cc2)cc(OC)c1", "note": "[Pter, trans-3,5-dimethoxy-4′-hydroxystilbene]", "values": [{"measurement": "CAT", "setting": "[1]", "value": "0.7 ± 0.2", "unit": "mU/10^6 cells"}, {"measurement": "GCL", "setting": "[1]", "value": "45 ± 14", "unit": "mU/10^6 cells"}, {"measurement": "GSH", "setting": "[1]", "value": "8 ± 3", "unit": "nmol/10^6 cells"}, {"measurement": "GSS", "setting": "[1]", "value": "5.5 ± 1.9", "unit": "mU/10^6 cells"}, {"measurement": "GSSG", "setting": "[1]", "value": "0.2 ± 0.1", "unit": "nmol/10^6 cells"}, {"measurement": "SOD1", "setting": "[1]", "value": "0.8 ± 0.3", "unit": "U/10^6 cells"}, {"measurement": "SOD2", "setting": "[1]", "value": "0.04 ± 0.01", "unit": "U/10^6 cells"}, {"measurement": "Tumor vol.", "setting": "[2]", "value": "795 ± 285", "unit": "mm^3"}, {"measurement": "ACTH production by AtT-20 cells", "setting": "[3]; 30 min every 24 h, CRH 100 nM", "value": "decreases"}, {"measurement": "POMC expression and levels in AtT-20 cells", "setting": "[3]; 72 h of culture", "value": "decreased"}, {"measurement": "NORA levels in plasma", "setting": "[4]", "value": "not significantly different"}, {"measurement": "Tumor vol.", "setting": "[5]", "value": "276 ± 74* mm^3"}, {"measurement": "CAT", "setting": "[6]", "value": "0.6 ± 0.2", "unit": "mU/10^6 cells"}, {"measurement": "GCL", "setting": "[6]", "value": "66 ± 18", "unit": "mU/10^6 cells"}, {"measurement": "GSH", "setting": "[6]", "value": "11.5 ± 2.0", "unit": "nmol/10^6 cells"}, {"measurement": "GSS", "setting": "[6]", "value": "7.7 ± 1.2", "unit": "mU/10^6 cells"}, {"measurement": "GSSG", "setting": "[6]", "value": "0.2 ± 0.05", "unit": "nmol/10^6 cells"}, {"measurement": "SOD1", "setting": "[6]", "value": "0.3 ± 0.08", "unit": "U/10^6 cells"}, {"measurement": "SOD2", "setting": "[6]", "value": "0.03 ± 0.01", "unit": "U/10^6 cells"}]}
